Experiments:
Experiment in all cases: relative viability (nuclei count vs DMSO), 5 days (fraction); higher = more cells survive
HCC-78 = test system: HCC-78
How it was run: (§1)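 Relative viability equals treated-well nuclei counts divided by vehicle-well nuclei counts. Counts came from 4× images of lung cancer cell lines grown in 1536-well plates for 5 days after pin-tool dosing on the day after seeding. Dosing used one drug alone or a fixed anchor-drug dose plus five library-drug doses (not always all listed) in √10 steps, and values are medians of duplicate plates.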

NCI-H661 = test system: NCI-H661
How it was run: as §1

NCI-H1915 = test system: NCI-H1915
How it was run: as §1

HCC-366 = test system: HCC-366
How it was run: as §1

NCI-H1993 = test system: NCI-H1993
How it was run: as §1

LK-2 = test system: LK-2
How it was run: as §1

NCI-H2405 = test system: NCI-H2405
How it was run: as §1

COR-L23 = test system: COR-L23
How it was run: as §1

A-427 = test system: A-427
How it was run: as §1

EMC-BAC-2 = test system: EMC-BAC-2
How it was run: as §1

NCI-H1563 = test system: NCI-H1563
How it was run: as §1

COR-L 105 = test system: COR-L 105
How it was run: as §1

BEN = test system: BEN
How it was run: as §1

HOP-62 = test system: HOP-62
How it was run: as §1

NCI-H1734 = test system: NCI-H1734
How it was run: as §1

SK-MES-1 = test system: SK-MES-1
How it was run: as §1

PC-14 = test system: PC-14
How it was run: as §1

NCI-H460 = test system: NCI-H460
How it was run: as §1

NCI-H647 = test system: NCI-H647
How it was run: as §1

201T = test system: 201T
How it was run: as §1

EKVX = test system: EKVX
How it was run: as §1

HCC-15 = test system: HCC-15
How it was run: as §1

SMILES: Cc1csc(=NC2CCCCC2)n1/N=C/c1ccc(O)c(O)c1O [MIM1] + CS(=O)(=O)N1CCN(Cc2cc3nc(-c4cccc5[nH]ncc45)nc(N4CCOCC4)c3s2)CC1 [Pictilisib] (partner 1 µM)
- relative viability (HCC-78; first compound 0.2 µM): 0.251
- relative viability (HCC-78; first compound 0.6325 µM): 0.23
- relative viability (HCC-78; first compound 2 µM): 0.228
- relative viability (HCC-78; first compound 6.325 µM): 0.34
- relative viability (HCC-78; first compound 20 µM): 0.185
- relative viability (NCI-H661; first compound 0.2 µM): 0.388
- relative viability (NCI-H661; first compound 0.6325 µM): 0.367
- relative viability (NCI-H661; first compound 2 µM): 0.357
- relative viability (NCI-H661; first compound 6.325 µM): 0.38
- relative viability (NCI-H661; first compound 20 µM): 0.345
- relative viability (NCI-H1915; first compound 0.2 µM): 1
- relative viability (NCI-H1915; first compound 0.6325 µM): 0.606
- relative viability (NCI-H1915; first compound 2 µM): 0.883
- relative viability (NCI-H1915; first compound 6.325 µM): 0.708
- relative viability (NCI-H1915; first compound 20 µM): 0.477
- relative viability (HCC-366; first compound 0.2 µM): 0.166
- relative viability (HCC-366; first compound 0.6325 µM): 0.153
- relative viability (HCC-366; first compound 2 µM): 0.122
- relative viability (HCC-366; first compound 6.325 µM): 0.183
- relative viability (HCC-366; first compound 20 µM): 0.0561
- relative viability (NCI-H1993; first compound 0.2 µM): 0.829
- relative viability (NCI-H1993; first compound 0.6325 µM): 0.92
- relative viability (NCI-H1993; first compound 2 µM): 0.827
- relative viability (NCI-H1993; first compound 6.325 µM): 0.776
- relative viability (NCI-H1993; first compound 20 µM): 0.764
- relative viability (LK-2; first compound 0.2 µM): 0.581
- relative viability (LK-2; first compound 0.6325 µM): 0.534
- relative viability (LK-2; first compound 6.325 µM): 0.561
- relative viability (LK-2; first compound 20 µM): 0.269
- relative viability (NCI-H2405; first compound 0.2 µM): 0.431
- relative viability (NCI-H2405; first compound 0.6325 µM): 0.52
- relative viability (NCI-H2405; first compound 2 µM): 0.506
- relative viability (NCI-H2405; first compound 6.325 µM): 0.418
- relative viability (NCI-H2405; first compound 20 µM): 0.546
- relative viability (COR-L23; first compound 0.2 µM): 0.692
- relative viability (COR-L23; first compound 0.6325 µM): 0.654
- relative viability (COR-L23; first compound 2 µM): 0.844
- relative viability (COR-L23; first compound 6.325 µM): 0.525
- relative viability (COR-L23; first compound 20 µM): 0.217
- relative viability (A-427; first compound 0.2 µM): 0.659
- relative viability (A-427; first compound 0.6325 µM): 0.469
- relative viability (A-427; first compound 2 µM): 0.671
- relative viability (A-427; first compound 6.325 µM): 0.743
- relative viability (A-427; first compound 20 µM): 0.214
- relative viability (EMC-BAC-2; first compound 0.2 µM): 0.538
- relative viability (EMC-BAC-2; first compound 0.6325 µM): 0.479
- relative viability (EMC-BAC-2; first compound 2 µM): 0.542
- relative viability (EMC-BAC-2; first compound 6.325 µM): 0.562
- relative viability (EMC-BAC-2; first compound 20 µM): 0.238
- relative viability (NCI-H1563; first compound 0.2 µM): 0.628
- relative viability (NCI-H1563; first compound 0.6325 µM): 0.672
- relative viability (NCI-H1563; first compound 2 µM): 0.636
- relative viability (NCI-H1563; first compound 6.325 µM): 0.61
- relative viability (NCI-H1563; first compound 20 µM): 0.4
- relative viability (COR-L 105; first compound 0.2 µM): 0.424
- relative viability (COR-L 105; first compound 0.6325 µM): 0.366
- relative viability (COR-L 105; first compound 2 µM): 0.344
- relative viability (COR-L 105; first compound 6.325 µM): 0.384
- relative viability (COR-L 105; first compound 20 µM): 0.291
- relative viability (BEN; first compound 0.2 µM): 0.607
- relative viability (BEN; first compound 0.6325 µM): 0.594
- relative viability (BEN; first compound 2 µM): 0.604
- relative viability (BEN; first compound 6.325 µM): 0.531
- relative viability (BEN; first compound 20 µM): 0.279
- relative viability (HOP-62; first compound 0.2 µM): 0.803
- relative viability (HOP-62; first compound 0.6325 µM): 0.437
- relative viability (HOP-62; first compound 2 µM): 0.724
- relative viability (HOP-62; first compound 6.325 µM): 0.642
- relative viability (HOP-62; first compound 20 µM): 0.127
- relative viability (NCI-H1734; first compound 0.2 µM): 0.501
- relative viability (NCI-H1734; first compound 0.6325 µM): 0.408
- relative viability (NCI-H1734; first compound 2 µM): 0.442
- relative viability (NCI-H1734; first compound 6.325 µM): 0.351
- relative viability (NCI-H1734; first compound 20 µM): 0.266
- relative viability (SK-MES-1; first compound 0.2 µM): 0.358
- relative viability (SK-MES-1; first compound 0.6325 µM): 0.346
- relative viability (SK-MES-1; first compound 2 µM): 0.388
- relative viability (SK-MES-1; first compound 6.325 µM): 0.283
- relative viability (SK-MES-1; first compound 20 µM): 0.252
- relative viability (PC-14; first compound 0.2 µM): 0.629
- relative viability (PC-14; first compound 0.6325 µM): 0.709
- relative viability (PC-14; first compound 2 µM): 0.628
- relative viability (PC-14; first compound 6.325 µM): 0.55
- relative viability (PC-14; first compound 20 µM): 0.488
- relative viability (NCI-H460; first compound 0.2 µM): 0.315
- relative viability (NCI-H460; first compound 0.6325 µM): 0.348
- relative viability (NCI-H460; first compound 2 µM): 0.249
- relative viability (NCI-H460; first compound 6.325 µM): 0.329
- relative viability (NCI-H460; first compound 20 µM): 0.274
- relative viability (NCI-H647; first compound 0.2 µM): 0.379
- relative viability (NCI-H647; first compound 0.6325 µM): 0.578
- relative viability (NCI-H647; first compound 6.325 µM): 0.42
- relative viability (NCI-H647; first compound 20 µM): 0.191
- relative viability (201T; first compound 0.2 µM): 0.688
- relative viability (201T; first compound 0.6325 µM): 0.659
- relative viability (201T; first compound 2 µM): 0.645
- relative viability (201T; first compound 6.325 µM): 0.654
- relative viability (201T; first compound 20 µM): 0.61
- relative viability (EKVX; first compound 0.2 µM): 0.477
- relative viability (EKVX; first compound 0.6325 µM): 0.365
- relative viability (EKVX; first compound 2 µM): 0.463
- relative viability (EKVX; first compound 6.325 µM): 0.322
- relative viability (EKVX; first compound 20 µM): 0.351
- relative viability (HCC-15; first compound 0.2 µM): 0.872
- relative viability (HCC-15; first compound 0.6325 µM): 0.455
- relative viability (HCC-15; first compound 2 µM): 0.824
- relative viability (HCC-15; first compound 6.325 µM): 0.53
- relative viability (HCC-15; first compound 20 µM): 0.11

Reference: the supplement of paper PMC10307832
